Source: ChEMBL document CHEMBL1201862, “PubChem BioAssay data set” (2004)
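Growth conditions: 96-well plates. Treatment: test compound, 48 hours, 5 concentrations. Analysis: linear interpolation between bracketing concentrations; unreached endpoints set to highest concentration. Abbreviation: GI50, concentration required for 50% inhibition of growth.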 Calls of active or inactive are those of the source. No stated cut-off is given here; in the data, active = GI50 up to about 1.1 µM and inactive = higher.

Tests used:
Assay in all cases: DTP human tumour cell line panel, 48 h
[1] = test system: 786-0
[2] = test system: CAKI-1
[3] = test system: DMS-273
[4] = test system: EKVX
[5] = test system: HCC 2998
[6] = test system: HL-60
[7] = test system: HOP-62
[8] = test system: Hs-578T
[9] = test system: KM-20L2
[10] = test system: NCI/ADR-RES
[11] = test system: OVCAR-3
[12] = test system: OVCAR-8
[13] = test system: PC-3
[14] = test system: SF-268
[15] = test system: SK-MEL-28
[16] = test system: SK-OV-3
[17] = test system: SN12C
[18] = test system: UO-31
[19] = test system: XF498
[20] = test system: T47D

Measured: GI50

O=C1C(Nc2ccc(S(=O)(=O)Nc3cnc4ccccc4n3)cc2)=C/C(=N\c2ccc(S(=O)(=O)Nc3cnc4ccccc4n3)cc2)c2ccccc21
inactive: [1] 17.2 µM | [2] 16.4 µM | [3] 12 µM | [4] 18.2 µM | [5] 17.5 µM | [6] 27.9 µM | [7] 18.3 µM | [8] 37.2 µM | [9] 17.7 µM | [10] 44.6 µM | [11] 19.8 µM | [12] 19.8 µM | [13] 20.5 µM | [14] 20 µM | [15] 18.1 µM | [16] 17.2 µM | [17] 16.7 µM | [18] 15.6 µM | [19] 25.5 µM

CC(CC(=O)Nc1ccc(NC(=O)CC(C)/N=N\C(N)=O)cc1)/N=N\C(N)=O (stereo not given)
inactive: [1] > 100 µM | [2] > 100 µM | [3] 41.6 µM | [4] > 100 µM | [5] > 100 µM | [6] > 100 µM | [7] > 100 µM | [9] > 100 µM | [11] > 100 µM | [12] > 100 µM | [14] > 100 µM | [15] > 100 µM | [16] > 100 µM | [17] > 100 µM | [18] > 100 µM | [19] > 100 µM

Nc1ccc(C(=O)/C=C/c2ccccc2O)cc1
inactive: [1] > 100 µM | [2] > 100 µM | [3] > 10 µM | [4] > 100 µM | [5] > 100 µM | [6] > 100 µM | [7] > 100 µM | [9] > 100 µM | [11] > 100 µM | [12] > 100 µM | [14] > 100 µM | [15] > 100 µM | [16] > 100 µM | [17] > 100 µM | [18] > 100 µM | [19] > 100 µM

O=C1C2Nc3ccccc3SC2C(=O)N1c1cccc([N+](=O)[O-])c1 (stereo not given)
inactive: [1] > 100 µM | [2] > 100 µM | [3] 1.46 µM | [4] > 100 µM | [5] 10.7 µM | [6] > 100 µM | [7] > 54.8 µM | [9] > 20.5 µM | [11] > 100 µM | [12] > 64 µM | [14] > 100 µM | [15] > 100 µM | [16] > 100 µM | [17] > 86.9 µM | [18] > 90.2 µM | [19] > 100 µM

COc1ccccc1C(=O)N(Cc1ccccc1)c1ccc(Cl)c(C(=O)OC(C)C)c1
inactive: [1] 25.9 µM | [2] 12.3 µM | [3] 5.98 µM | [4] 16.7 µM | [5] 18.2 µM | [6] 9.4 µM | [7] 18.8 µM | [8] 61.1 µM | [9] 30.3 µM | [10] 20.2 µM | [11] 17.7 µM | [12] 27.8 µM | [13] 7.53 µM | [14] 42.3 µM | [15] 41.7 µM | [16] 25.4 µM | [17] 27.6 µM | [20] 5.52 µM | [18] 7.71 µM | [19] 14.2 µM

CCCSS[C@H]1NC(=O)[C@H]1NC(=O)COc1ccccc1
inactive: [1] 17.4 µM | [2] 17.3 µM | [3] 17.4 µM | [4] 20.6 µM | [5] 15.5 µM | [6] 2.6 µM | [7] > 100 µM | [9] 20.9 µM | [11] 17.3 µM | [12] 13.9 µM | [14] 20 µM | [15] 16.6 µM | [16] > 100 µM | [17] 15.1 µM | [18] 32.5 µM | [19] 17.8 µM

Cc1cc(N(CCC#N)CCC#N)ccc1/C=C(\NC(=O)/C=C/c1ccccc1)C(=O)N=[N+]=[N-]
inactive: [1] 37.5 µM | [2] > 100 µM | [3] > 100 µM | [4] > 100 µM | [5] > 100 µM | [6] > 100 µM | [7] 32.1 µM | [9] > 100 µM | [11] 7.01 µM | [12] > 100 µM | [14] 99.1 µM | [15] > 100 µM | [16] 55 µM | [17] > 100 µM | [18] > 100 µM | [19] 28.5 µM

CCOC(=O)c1cn2c([nH]c3ccccc32)c(C#N)c1=O
inactive: [1] > 100 µM | [2] > 100 µM | [3] > 100 µM | [4] > 100 µM | [5] > 100 µM | [6] 25.8 µM | [7] > 100 µM | [9] > 100 µM | [11] > 100 µM | [12] > 100 µM | [14] > 100 µM | [15] > 100 µM | [16] > 100 µM | [17] > 100 µM | [18] 98.2 µM | [19] > 100 µM

O=S(=O)(O)c1cc(/N=N/c2cc(S(=O)(=O)O)c3ccccc3c2O)ccc1/C=C/c1ccc(/N=N/c2cc(S(=O)(=O)O)c3ccccc3c2O)cc1S(=O)(=O)O
inactive: [1] > 684 µM | [2] > 574 µM | [3] > 83 µM | [4] > 399 µM | [5] > 100 µM | [6] 18.2 µM | [7] > 668 µM | [8] 499 µM | [9] > 100 µM | [10] 427 µM | [11] > 553 µM | [12] > 755 µM | [13] 150 µM | [14] > 800 µM | [15] 594 µM | [16] > 630 µM | [17] > 743 µM | [20] 497 µM | [18] > 367 µM | [19] > 100 µM
